Legend:
MCF-7 cells = assay: Intracellular GSH and GSSG, MCF-7; assay type: cell-based, human; conditions: MCF-7, 24 h, reference agents: Ascorbic acid 200 µM, AAPH 10 mM
Protocol: (§1) The quantitative determination of glutathione and glutathione disulfide was performed using the enzymatic recycling method according to the protocol of Rahman. The cells were seeded at a density of 2 × 10^5 per well in a 6-well plate and cultured for 48 h. Then, the cells were treated with tested compounds 1, 4 and 7 at their respective ¼ and ½ IC50 values for MCF-7 and MDA-MB-231 cells. Additionally, controls with pure medium, AAPH (2,2′-Azobis(2-methylpropionamidine) dihydro-chloride, Sigma Aldrich, St. Louis, MO, USA) and ascorbic acid (Polish Chemical Reagents, Poland) were performed. The cells were incubated with compounds for another 24 h, then washed twice with 2 mL of cold, Ca^2+-/Mg^2+-free PBS (Biomed Lublin, Lublin, Poland). The cells were harvested using 1-mL accutase (Sigma Aldrich, St. Louis, MO, USA), and the wells were washed with 1 mL of cold growth medium. The cells were transferred to prechilled 2.0-mL Eppendorf tubes and centrifuged at 1000× g for 5 min at 4 °C. The supernatant was discarded, the pellets were resuspended in 1 mL of cold PBS, the number of cells was determined in each sample and the cellular suspension was centrifuged again. PBS was discarded, and the pellets were stored covered with 30-µL PBS at –70 °C. The following day, the cells were suspended in 0.5 mL of ice-cold extraction buffer (0.1% Triton-X (Polish Chemical Reagents, Gliwice, Poland) and 0.6% sulfosalicylic acid (Sigma Aldrich) in a potassium phosphate buffer with EDTA (Sigma Aldrich)) and sonicated in icy water for 3 min with vortexing every 30 s. The cells were frozen once again at −80 °C, defrosted on ice and frozen once again. Following the second freeze–thaw cycle, the cells were centrifuged at 1500× g for 5 min at 4 °C, and then, immediately, the supernatant was transferred to prechilled Eppendorf tubes. The samples were divided into two parts: one was used to measure GSH, and the other one was derivatized by an addition of 4 µL of 2-vinylpyridine (diluted 1:10 with phosphate buffer) (Sigma Aldrich, St. Louis, MO, USA) to determine the GSSG content.
(§2) GSH measurements included an addition of 20 µL of the tested sample, blank or GSH standard, 120 µL of the mixture of an equal volume of DTNB solution (2 mg dissolved in 3 mL of phosphate buffer, Sigma Aldrich) and glutathione reductase (10 U in 3 mL of phosphate buffer, Sigma Aldrich, St. Louis, MO, USA) and 30 s of incubation to allow the conversion of GSSG to GSH. The final step included the addition of 60 µL of β-NADPH (2 mg dissolved in 3 mL of phosphate buffer, Sigma Aldrich). The absorbance was read immediately at 415 nm in a microplate reader (Bio-Rad), and the measurements were taken every 30 s for 2 min (6 readings in total). The amount of GSH was calculated on the basis of the calibration curve prepared using GSH (Sigma Aldrich, St. Louis, MO, USA) at concentrations ranging from 0.040 to 2.6 nmol/mL.
(§3) The quantification of GSSG in the test samples was performed according to the same procedure as GSH. The samples treated with 2-VP were incubated for one hour at room temperature, and then, 20 µL of the tested sample was analyzed using the same reagents which were applied in the GSH measurements. The amount of GSSG was calculated on the basis of the calibration curve, prepared using GSSG (Sigma Aldrich) at concentrations of 0.040–2.6 nmol/mL. The results are presented as mean ± SD, n = 6–8 and expressed as nmol per […].

MDA-MB-231 cells = assay: Intracellular GSH and GSSG, MDA-MB-231; assay type: cell-based, human; conditions: MDA-MB-231, 24 h, reference agents: Ascorbic acid 200 µM, AAPH 10 mM
Protocol: as §1, §2, §3

Row | SMILES | GSH (MCF-7 cells) | GSH:GSSG Ratio (MCF-7 cells) | GSSG (MCF-7 cells) | GSH (MDA-MB-231 cells) | GSH:GSSG Ratio (MDA-MB-231 cells) | GSSG (MDA-MB-231 cells)
1 | CC(C)(N=NC(C)(C)C(=N)N)C(=N)N.Cl.Cl [AAPH, 2,2′-Azobis(2-methylpropionamidine) dihydrochloride, reference compound] | 117.6 ± 7.8 nmol/1 mln Cells | 8.9 | 12.8 ± 0.5 nmol/1 mln Cells | 102.7 ± 3.2 nmol/1 mln Cells | 6.9 | 14.3 ± 1.9 nmol/1 mln Cells
2 | O=C1O[C@H]([C@@H](O)CO)C(O)=C1O [Ascorbic acid, reference compound] | 153.1 ± 5.4 nmol/1 mln Cells | 25.3 | 6.0 ± 0.4 nmol/1 mln Cells | 249.6 ± 20.8 nmol/1 mln Cells | 13.9 | 17.9 ± 1.5 nmol/1 mln Cells

Reference: publication PMC7177633, “Effective Cellular Transport of Ortho-Halogenated Sulfonamide Derivatives of Metformin Is Related to Improved Antiproliferative Activity and Apoptosis Induction in MCF-7 Cells” (International Journal of Molecular Sciences, 2020)
